In patent publication US11261187B2, “Compounds and methods for targeting HSP90” (Duke University, priority 2016, dated 2022):

What was measured:
MDA-MB-468 cells [1] = assay: Confocal imaging of eHsp90 puncta in probe-treated tumor cells; type: cell-based
Method: (§1) Cells were plated on uncoated 18-mm round coverslips in 12 well plates at 150,000 cells/well and were allowed to adhere overnight. 100, in a stock solution in DMSO, was diluted in serum-free/phenol red-free DMEM. After drug incubation, the cells were washed twice with ice-cold PBS, fixed with 1% PFA in PBS for 10 min, and stained with 5 μg/mL wheat germ agglutinin-488 (WGA-488, Invitrogen, Waltham, Mass.) and either Hoescht or DAPI. The coverslips were washed and mounted onto microscope slides using FluorSave mounting reagent (Millipore, Darmstadt, Germany). Slides were imaged on a Leica SP5 confocal microscope.
(§2) Images were analyzed for fluorescence and puncta using ImageJ software using a non-biased, high-throughput macro. In brief, cells were selected using an expanded selection from the DAPI channel. The regions of interest were then masked, a watershed filter was applied to split adjacent cells into separate cells, and the regions of interest were applied to the 100 channel to measure fluorescence and puncta. High resolution confocal stacks were deconvolved with Hyugen's Deconvolution Software or AiryScan.
Using a standard fluorescence curve, the concentration within the puncta of 100 was estimated to be 4.66±0.05 μM. […]

MDA-MB-468 cells [2] = assay: 100 internalization assay in MDA-MB-468 cells; type: cell-based; settings: MDA-MB-468 cells; dose and time series
Method: as §1, §2
(§3) To analyze the internalization of eHsp90 in transformed cells, the 4T1 cell model was utilized.

[3] = tested on: MMTV-neu spontaneous mammary tumor; assay: Cryo-imaging and histology of MMTV-neu spontaneous mammary tumor mice; type: in vivo, mouse
Text: […] Slices of 5-μm thickness were cut and placed on slides to dry overnight. Slides were then deparaffinized and either H&E stained or rehydrated and stained with DAPI before mounting. Slides were imaged at 20× magnification on a Zeiss Axio Imager widefield fluorescence microscope equipped with a color camera.
To investigate the tumor specificity and eHsp90 internalization in a more relevant model of human breast cancer, the MMTV-neu spontaneous mammary tumor mouse model was used (FIGS. 4c-d). […] Following cryoslicing, each 40 μm slice was imaged for fluorescence and brightfield. […] Previous studies have reported the autofluorescence of Leydig cells in the testes due to the presence of a lipophilic pigment.

[4] = Storage stability by LC/MS at a later date; type: physicochemical; settings: primarily to the hydride
Method: Compound 116 (50 mg, 33 μmol), hexamethylditin (14 mg, 9 μL, 42 μmol) and tetrakis triphenylphosphine palladium(0) (1 mg 1 μmol) were slurried in dioxane (1 mL), purged with nitrogen for 30 m and heated to 100° C. for an hour. The reaction was mixture was adsorbed onto silica gel and chromatographed (50 g C18, 0.2% formic acid to 100% MeOH) to give product 118 (13.9 mg, 27%) as a blue solid. LC/MS gives a single peak with a little shoulder with m/z=785.8 [M+2H]^2+ as part of a cluster typical of Tin compounds.

eHsp90 [5] = assay: Competition of fluorescent probe binding to eHsp90 on cells by untethered Hsp90 inhibitors; type: cell-based
Method: Cells were plated on uncoated 18-mm round coverslips in 12 well plates at 150,000 cells/well and were allowed to adhere overnight. 100, in a stock solution in DMSO, was diluted in serum-free/phenol red-free DMEM. […] The coverslips were washed and mounted onto microscope slides using FluorSave mounting reagent (Millipore, Darmstadt, Germany). Slides were imaged on a Leica SP5 confocal microscope.
as §2, §3

eHsp90 [6] = assay: Live imaging and tracking of puncta (lattice light sheet microscope); type: cell-based; settings: 10 μM 100 competed with 100 μM HS-10
Method: Live imaging was also performed on cells treated with 100 alone, 101, or 100 and HS-10, and spots were tracked over time to investigate any differences in puncta movement and size. […] Puncta detected with 100 were competed with HS-10 (FIG. 3d).

non-malignant cells = assay: Puncta formation on non-malignant cells; type: cell-based
Method: Using a standard fluorescence curve, the concentration within the puncta of 100 was estimated to be 4.66±0.05 μM. Based on puncta volume and a ratio of 1:1 for 100:Hsp90 (as each monomer of Hsp90 has a single ATP-binding site), the larger puncta are estimated to contain 2659±105 monomers of eHsp90. Accumulation of the puncta intracellularly is time-dependent (FIG. 3b). Formation of the puncta is eHsp90-dependent and not related to any physiochemical properties of the probes themselves. […] This diffusion may be a result of exchange with intracellular ATP or the degradation of the internalized eHsp90. Probe aggregates alone would not be expected to spontaneously dissipate without the addition of some form of organic solvent.

Compound: CCOCCCNCc1ccc(C(=C\C=C2\N(CCCCS(=O)(=O)O)c3ccccc3C2(C)C)/C=C/C2=[N+](CCCCS(=O)(=O)[O-])c3ccccc3C2(C)C)cc1 [Compound 19, 4-(2-((1E,3Z)-5-((E)-3,3-dimethyl-1-(4-sulfobutyl)indolin-2-ylidene)-3-(4-(((3-ethoxypropyl)amino)methyl)phenyl)penta-1,3-dien-1-yl)-3,3-dimethyl-3H-indol-1-ium-1-yl)butane-1-sulfonate]
- puncta formation when applied to cells (MDA-MB-468 cells [1]): does not form puncta

Compound: Cc1nn(-c2ccc(C(=O)N(C)C)c(NCCCOCCOCCOCCOCCOCCCNCc3ccc(C(=C\C=C4\N(CCCCS(=O)(=O)O)c5ccccc5C4(C)C)/C=C/C4=[N+](CCCCS(=O)(=O)[O-])c5ccccc5C4(C)C)cc3)c2)c2c1C(=O)CC(C)(C)C2 [Compound 101, 4-(2-((1E,3Z)-5-((E)-3,3-dimethyl-1-(4-sulfobutyl)indolin-2-ylidene)-3-(4-(21-((2-(dimethylcarbamoyl)-5-(3,6,6-trimethyl-4-oxo-4,5,6,7-tetrahydro-1H-indazol-1-yl)phenyl)amino)-6,9,12,15,18-pentaoxa-2-azahenicosyl)phenyl)penta-1,3-dien-1-yl)-3,3-dimethyl-3H-indol-1-ium-1-yl)butane-1-sulfonate]
- uptake of probe (MDA-MB-468 cells [2]): only weakly internalized at higher concentrations
- probe uptake in MMTV-neu mammary tumor ([3]; 25 nmol i.v., 6 hours, cryoslicing and histology): No uptake was observed
- specific drug fluorescence in duct epithelium of tumor cells (histology) ([3]; FIG. 5, serial sections, DAPI/Cy5): not in the 101-treated mouse

Compound: Cc1nn(-c2ccc(C(N)=O)c(NCCCOCCOCCOCCOCCOCCCN(Cc3ccc(C(=C\C=C4\N(CCCCS(=O)(=O)O)c5ccccc5C4(C)C)/C=C/C4=[N+](CCCCS(=O)(=O)[O-])c5ccccc5C4(C)C)cc3)Cc3ccc[c]([Sn]([CH3])([CH3])[CH3])c3)c2)c2c1C(=O)CC(C)(C)C2 [Compound 118, 4-(2-((E,3Z)-3-(4-(21-((2-carbamoyl-5-(3,6,6-trimethyl-4-oxo-4,5,6,7-tetrahydro-1H-indazol-1-yl)phenyl)amino)-2-(3-(trimethylstannyl)benzyl)-6,9,12,15,18-pentaoxa-2-azahenicosyl)phenyl)-5-((E)-3,3-dimethyl-1-(4-sulfobutyl)indolin-2-ylidene)penta-1,3-dien-1-yl)-3,3-dimethyl-3H-indol-1-ium-1-yl)butane-1-sulfonate]
- stability on storage [4]: significant decomposition

Compound: Cc1nn(-c2ccc(C(N)=O)c(N[C@H]3CC[C@H](O)CC3)c2)c2c1C(=O)CC(C)(C)C2 [HS-10]
- competition of binding of probe 100 to eHsp90 (eHsp90 [5]; MDA-MB-468 cells, 100 at 25 μM, 45 min, 1 μM HS-10 or 10 μM PUH71): competed
- blocking of binding of 100 and HS-27 to eHsp90 (eHsp90 [5]; untethered Hsp90 inhibitors): blocked
- competition of puncta detected with 100 (eHsp90 [6]): competed

Compound: Cc1nn(-c2ccc(C(N)=O)c(NCCCOCCOCCOCCOCCOCCCNC(=S)Nc3ccc4c(c3)C(=O)OC43c4ccc(O)cc4Oc4cc(O)ccc43)c2)c2c1C(=O)CC(C)(C)C2 [HS-27, reference compound]
- puncta formation when applied to cells (MDA-MB-468 cells [1]): forms puncta
- puncta formation on non-malignant cells (non-malignant cells): puncta do not form
